{"source": "patent US9107879B1", "about": "“Methods of increasing the cytotoxicity of chemotherapeutic agents with multisubstrate inhibitors of histone, protein-lys, polyamine acetylation, and polyamine metabolism” (Vanderbilt University, priority 2010, dated 2015)", "key": {"H358 lung cancer cells": {"test_system": "H358 lung cancer cells", "assay": "[3H]-thymidine incorporation DNA synthesis assay", "format": "cell-based", "conditions": "Homo sapiens, NCI-H358; Example 1: 50 μM 1a (continuous) + 5 nM camptothecin (24 h); 48 hours post treatment; read-out: DNA synthesis rate, % of control rate"}, "H358 cells": {"test_system": "H358 cells", "assay": "nucleotide excision repair assay (thymidine dimer slot blot)", "format": "cell-based", "conditions": "40 J/m2 UVC then 50 μM 1a; within 24 hours (untreated cells 50%)", "method": "Also shown are controls for no treatment (“c” minus 1a) or treatment with 1a only (“c” plus 1a). Each lane represents 60 μg protein. […] Each lane represents 60 μg protein.\nFor NER, a slot blot immunoassay was used to detect the loss of thymidine dimers from the DNA of UVC treated cells as previously described. An antibody specific for cyclobutane pyrimidine dimers, the major photoproduct produced by UVC treatment, was purchased from Kamiya Biomedical Co(Seattle, Wash.; anti-thymidine dimer, clone KTM53) and used at 1:40 dilution.\nDNA repair can promote cell survival following DNA damage. Nucleotide excision repair (NER), which requires histone acetylation (Cazzalini et al., 2008, 36: 1713-22) removes bulky DNA adducts such as the intrastrand guanine-adenine crosslinks caused by cisplatin or the intrastrand thymidine dimers produced by UVC radiation. We assayed NER in the presence or absence of 50 μM 1a using an immunoblot analysis of thymidine dimers in cellular DNA prepared from cells at fixed times after exposure to 40 J/m^2UVC radiation. […] The results support a model in which acetylation of the core histones, accompanied by localized relaxation of chromatin structure, may be necessary to initiate DNA repair, possibly by allowing access of DNA to multiprotein repair complex involved in nucleotide excision repair, or by promoting recruitment of those factors. […]"}, "[1]": {"conditions": "5 mM, approximately 10 mg/kg, twice per week for 3 weeks", "method": "They injected a second set of 4 mice with 100 μl of spd-3a (5 mM, approximately 10 mg/kg, or about 0.25 mM initial blood concentration), twice per week for 3 weeks."}, "[2]": {"test_system": "BT20 breast cancer cell line (TNBC)", "assay": "3-day viability assay", "format": "cell-based", "conditions": "spd-2a increasing doses; camptothecin 5 nM", "source_text": "The effect of spd-2a on the BT20 breast cancer cell line derived form a spontaneous TNBC with wild-type BrCal was examined. […] Having previously established that spd-2a is a therapy sensitizer, the present inventors then examined the combined effects of spd-2a and camptothecin (the basis for the chemotherapeutic drug, Irinotecan)."}, "MCF7 breast cancer cells": {"test_system": "MCF7 breast cancer cells", "conditions": "1a increasing concentrations; camptothecin 5 nM 18 hour", "method": "(A) [^3H]-thymidine incorporation into DNA of H358 cells (left panel) or MCF-7 cells (right panel) during a 6 hour pulse ending at the indicated time points after initiation of treatment. Treatments were 50 μM 1a alone, 5 nM camptothecin alone (CPT, 18 hours), 50 μM 1a+5 nm CPT (18 hours). Control cells were left untreated. (B) 2-day 96-well viability assays of H358 cells (left panel) or MCF-7 cells (right panel) grown in presence of increasing concentrations of 1a (continuous), with or without an 18-hour treatment with 5 nM camptothecin (CPT). Cell viability, represented as a percent of untreated cell viability (i.e., no 1a, no CPT), was determined 2 days post-start of treatment by the MTS bioconversion assay (MTS=(3-(4,5′-dimethylthiazol-2-yl)-5-(3-carboxymethoxylphenyl-2-(4-sulfophenyl)-2H-tetrazolium salt). Each data point represents the average of triplicate wells. Assays were carried out under conditions such that untreated cells remained in exponential growth. (C) [^3H]-thymidine incorporation into DNA of H358 cells carried out as in part “A”. Treatment consisted of 1a alone (50 μM), or cisplatin (2 μM, 1 hour, 15 minutes) alone or together with 1a (Panel 1); or UVC (40 J/m^2), alone or together with 1a (Panel 2); or 5-fluorouracil (5FU, 2 μM, 18 hours) alone or together with 1a (Panel 3), or Taxotere™ (5 nM, 18 hours), alone or together with 1a (Panel 4). Control cells were left untreated. Symbols are as follows: (-◯-) untreated control; (-●-) 50 μM 1a, (-∇-) drug or UVC alone; (-▾-) combination 1a+drug or UVC.\nViability was measured 3 days after the start of treatment and is expressed as a percentage of control (untreated) cell viability.\nEach point is average of triplicates.\nDate of exp: 7-17-2010; located p.21 in Hat notebook: KB-2 (2010-2011).\nCells were plated in 96-well plates (3000 cells per well) and incubated 18 hours with or without 5 nM camptothecin (Sigma, St Louis, Mo.). Triplicate wells were then treated with varying doses of 1a (from 0-50 μM). Control cells received neither 1a nor camptothecin. 2-day viability was determined by the MTS assay as previously (Saadatmandi et al., 2002, Cancer Gene Therapy, 9: 830-9) and expressed as a percentage of control cell viability.\nThe present inventors carried out 96-well viability assays as we have previously described (Saadatmandi et al, Cancer Gene Therapy (2002) 9:830-9), in which MCF7 breast cancer cells were plated at 3000 cells per well. After overnight attachment, triplicate wells were treated with increasing doses of inhibitor 1a. Control wells were left untreated. After 3 days, cell viability was measured by the MTS assay, which measures the bioconversion of an uncolored substrate to a colored formazan derivative, and is proportional to cell number. […]"}, "[3]": {"test_system": "DU145 prostate cancer cells", "format": "cell-based", "conditions": "camptothecin 5 nM; 2a 10 μM", "method": "Cells were plated in 96-well plates at 2000 cells per well and treated with the indicated doses of spd-3a. Cell viability was measured by the MTS assay 3 days later."}}, "data": [{"smiles": "CC(C)(COP(=O)(O)OP(=O)(O)OC[C@H]1O[C@@H](n2cnc3c(N)ncnc32)[C@H](O)[C@@H]1OP(=O)(O)O)[C@@H](O)C(=O)NCCC(=O)NCCSCC(=O)NCCCNCCCCN", "note": "[1a, spermidine[N1]-CoA]", "values": [{"measurement": "activity at 50 µM", "setting": "H358 lung cancer cells", "value": "~10", "unit": "%"}, {"measurement": "decrease of thymidine dimers in DNA", "setting": "H358 cells", "value": 40, "unit": "%"}]}, {"smiles": "CC(=O)NCCSCC(=O)NCCCNCCCCN", "note": "[3a]", "values": [{"measurement": "body weight", "setting": "[1]", "value": "did not lose weight"}, {"measurement": "signs of toxicity", "setting": "[1]; 4 mice", "value": "no signs of distress or illness"}]}, {"smiles": "CC[C@@]1(O)C(=O)OCc2c1cc1n(c2=O)Cc2cc3ccccc3nc2-1", "note": "[camptothecin]", "values": [{"measurement": "3-day viability, single agent", "setting": "[2]", "value": "no effect"}, {"measurement": "2-day cumulative cell viability relative to untreated, single agent", "setting": "MCF7 breast cancer cells", "value": "no effect"}, {"measurement": "effect on cell viability, single agent", "setting": "[3]", "value": "minimal effects"}]}]}
